In brackets after ≈: the same amount, converted by molar mass. Several values for one entry are separate records, joined by “and”; a condition that tells them apart may be missing. Equal entries are not always repeated. Where two headings read alike, the source gives them in different places. Where a SMILES comes first, the peptide text is derived from it. Bridges are numbered along the chain shown (N, C = ends). [ ]: non-standard residue; d: D form. The star is where a group is joined. X1 = CC[C@H](C)CCCCC(=O)*; Dab = NCC[C@H](N)C(=O)O
Key:
[1] = test system: E. coli ATCC 25922; test: microbe, parasite or virus in culture
Description: A positive control of a row of just the bacteria and a negative control of only the medium were included for every plate tested.
The compounds along with standard antibiotics were serially diluted 2-fold across the 96-well plates. […] A sample of each culture was then diluted 40-fold in fresh MH broth (in presence and absence of Tween) and incubated at 37°C for 2 to 3 h.
For experiments in the presence of surfactant, 2% beractant (25 mg/ml) was added to the mid-log-phase cultures and mixed gently and added to all the 96-well plates. For experiments in the presence of serum, a mixture of 50% of human serum along with 50% MHB was prepared and used throughout the experiment.

[2] = test system: A. baumannii ATCC 19606; test: microbe, parasite or virus in culture; conditions: n = 2
Procedure, shortened: (§1)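 Every plate included two controls, one row of bacteria alone and one of medium only. Test agents and standard antibiotics underwent twofold dilution series in 96-well format, and cultures were diluted 40-fold into MH broth in the presence or absence of Tween before 2–3 h at 37°C.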

[3] = test system: K. pneumoniae ATCC 13883; test: microbe, parasite or virus in culture; conditions: n = 2
Procedure, shortened: as §1

[4] = test system: P. aeruginosa ATCC 10145; test: microbe, parasite or virus in culture; conditions: n = 2
Procedure, shortened: as §1

[5] = test system: E. coli; conditions: literature value; cited from earlier work
[6] = 8 µg/ml, 24 h, cited from earlier work; for % of expected concentration detected: MHB
From the text: (§2) Members of the lipopeptide polymyxin class of antibiotics (polymyxin B [compound 7a] and polymyxin E [or colistin, compound 7b]) are important last-line therapeutic agents against many multidrug-resistant Gram-negative bacteria ([27][–][31]). They consist of an N-terminal fatty acid side chain that is attached to a polycationic deca-peptide backbone (Fig. 1) with physicochemical properties similar to those of the lipoglycopeptides. These structural features confer amphipathicity, which is a key feature of many other cationic antimicrobial peptides (CAMPs) ([32][–][34]). As mentioned earlier, p ...

[7] = test system: over 200 strains; conditions: 0.002% polysorbate added; cited from earlier work
From the text: as §2

[8] = literature values, reference given; cited from earlier work
From the text: Other assay additives can affect MIC values. […] Plasma protein binding has been implicated as a major factor limiting the active free concentration of many clinically important antibiotics ([37][–][42]).

With `CC[C@H](C)CCCCC(=O)N[C@@H](CCN)C(=O)N[C@H](C(=O)N[C@@H](CCN)C(=O)N[C@H]1CCNC(=O)[C@H]([C@@H](C)O)NC(=O)[C@H](CCN)NC(=O)[C@H](CCN)NC(=O)[C@H](CC(C)C)NC(=O)[C@@H](CC(C)C)NC(=O)[C@H](CCN)NC1=O)[C@@H](C)O` [Colistin, colistin] (X1-[Dab]T[Dab][Dab][Dab][dL]L[Dab][Dab]T; lactam 4-C (inferred); N-terminus assumed) the MIC ([1]; Corning NBS, MH + 2% LHB, 2% LS, n = 2) was 0.03 to 0.06 µg/mL, the MIC ([1]; Corning NBS, MH + 2% LHB, 50% HS, n = 2) was ≤0.03 µg/mL and the MIC ([1]; Corning NBS, MH + 2% LHB, no additive, n = 2) was ≤0.03 µg/mL. For the same compound, the MIC ([1]; Corning NBS, MH + T80, 2% LS, n = 2) was 0.03 to 0.06 µg/mL, the MIC ([1]; Corning NBS, MH + T80, 50% HS, n = 2) was ≤0.03 µg/mL and the MIC ([1]; Corning NBS, MH, 2% LS, n = 2) was ≤0.03 µg/mL. For the same compound, the MIC ([1]; Corning NBS, MH, 50% HS, n = 2) was ≤0.03 µg/mL, the MIC ([1]; Corning PS plate, MHB −T80, no additive, n = 2) was 0.06 µg/mL (≈ 0.0513 µM) and the MIC ([1]; Corning PS, MH + 2% LHB, 2% LS, n = 2) was 0.06 to 0.125 µg/mL. The MIC ([1]; Corning PS, MH + 2% LHB, 50% HS, n = 2) was ≤0.03 µg/mL, the MIC ([1]; Corning PS, MH + 2% LHB, no additive, n = 2) was 1 µg/mL and the MIC ([1]; Corning PS, MH + T80, 2% LS, n = 2) was 0.03 to 0.06 µg/mL. For the same compound, the MIC ([1]; Corning PS, MH + T80, 50% HS, n = 2) was ≤0.03 µg/mL, the MIC ([1]; Corning PS, MH, 2% LS, n = 2) was 0.06 to 0.25 µg/mL and the MIC ([1]; Corning PS, MH, 50% HS, n = 2) was ≤0.03 µg/mL. For the same compound, the MIC ([1]; Corning TC plate, MHB +0.002% T80, no further additive, n = 2) was 1 µg/mL (≈ 0.855 µM), the MIC ([1]; Corning TC plate, MHB −T80, no additive, n = 2) was 0.5 to 1 µg/mL and the MIC ([1]; Corning TC, MH + 2% LHB, 2% LS, n = 2) was 2 to 4 µg/mL. The MIC ([1]; Corning TC, MH + 2% LHB, 50% HS, n = 2) was 0.25 to 0.5 µg/mL, the MIC ([1]; Corning TC, MH + 2% LHB, no additive, n = 2) was ≤0.03 µg/mL and the MIC ([1]; Corning TC, MH + T80, 2% LS, n = 2) was 1 to 2 µg/mL. It also gave an MIC ([1]; Corning TC, MH + T80, 50% HS, n = 2) of 0.25 to 0.5 µg/mL, an MIC ([1]; Corning TC, MH, 2% LS, n = 2) of 0.5 to 1 µg/mL and an MIC ([1]; Corning TC, MH, 50% HS, n = 2) of 0.125 to 0.5 µg/mL. The “MIC” value ([1]; NBS plates) was ≤ 0.03 µg/mL, the MIC ([1]; Nunc PS plate, MHB +0.002% T80, n = 2) was ≤0.03 µg/mL and the MIC ([1]; Nunc PS plate, MHB −T80, n = 2) was 0.125 to 1 µg/mL. For the same compound, the MIC ([1]; Nunc U TC plate, MHB +0.002% T80, n = 2) was 2 µg/mL (≈ 1.71 µM), the MIC ([1]; Nunc U TC plate, MHB −T80, n = 2) was 0.5 to 1 µg/mL and the MIC ([1]; Nunc flat TC plate, MHB +0.002% T80, n = 2) was 1 to 2 µg/mL. The MIC ([1]; Nunc flat TC plate, MHB −T80, n = 2) was 1 to 2 µg/mL, the “MIC” value ([1]; PS plates) was ≤0.03 to 1 µg/mL and the “MIC” value ([1]; PS plates with T80) was ≤0.03 to 0.25 µg/mL. The “MIC” value ([1]; TC plates) was 0.5 to 4 µg/mL, the MIC ([1]; Trek PS plate, MHB +0.002% T80, no further additive, n = 2) was ≤0.03 µg/mL and the MIC ([1]; Trek PS plate, MHB −T80, no additive, n = 2) was ≤0.03 µg/mL. For the same compound, the MIC ([1]; Trek PS, MH + 2% LHB, 2% LS, n = 2) was ≤0.03 µg/mL, the MIC ([1]; Trek PS, MH + 2% LHB, 50% HS, n = 2) was 0.03 to 0.06 µg/mL and the MIC ([1]; Trek PS, MH + 2% LHB, no additive, n = 2) was 0.03 to 0.06 µg/mL. The MIC ([1]; Trek PS, MH + T80, 2% LS, n = 2) was ≤0.03 µg/mL, the MIC ([1]; Trek PS, MH + T80, 50% HS, n = 2) was ≤0.03 µg/mL and the MIC ([1]; Trek PS, MH, 2% LS, n = 2) was ≤0.03 µg/mL. For the same compound, the MIC ([1]; Trek PS, MH, 50% HS, n = 2) was ≤0.03 µg/mL, the MIC ([2]; Corning NBS, MHB +T80) was ≤ 0.03 µg/mL and the MIC ([2]; Corning NBS, MHB -T80) was ≤ 0.03 µg/mL. For the same compound, the MIC ([2]; Corning PS, MHB +T80) was 0.06 µg/mL (≈ 0.0513 µM), the MIC ([2]; Corning PS, MHB -T80) was 0.06 to 0.125 µg/mL and the MIC ([2]; Corning TC, MHB +T80) was 1 to 2 µg/mL. For the same compound, the MIC ([2]; Corning TC, MHB -T80) was 0.5 to 1 µg/mL, the MIC ([3]; Corning NBS, MHB +T80) was ≤ 0.03 µg/mL and the MIC ([3]; Corning NBS, MHB -T80) was ≤ 0.03 µg/mL. The MIC ([3]; Corning PS, MHB +T80) was ≤ 0.03 µg/mL, the MIC ([3]; Corning PS, MHB -T80) was 0.125 to 0.25 µg/mL and the MIC ([3]; Corning TC, MHB +T80) was 0.25 to 0.5 µg/mL. The MIC ([3]; Corning TC, MHB -T80) was 2 µg/mL (≈ 1.71 µM), the MIC ([4]; Corning NBS, MHB +T80) was 0.125 µg/mL (≈ 0.107 µM) and the MIC ([4]; Corning NBS, MHB -T80) was 0.06 µg/mL (≈ 0.0513 µM). The MIC ([4]; Corning PS, MHB +T80) was 0.25 to 0.5 µg/mL, the MIC ([4]; Corning PS, MHB -T80) was 0.25 to 0.5 µg/mL and the MIC ([4]; Corning TC, MHB +T80) was 1 to 2 µg/mL. The MIC ([4]; Corning TC, MHB -T80) was 0.5 to 2 µg/mL, the “MIC (literature)” value [5] was 0.5–2 ([70]) µg/ml and the “% of concentration remaining” value ([6]; Greiner untreated PS microwell plates) was 2%. For the same compound, the “% of expected concentration detected” value ([6]; PP tubes) was 90%, the “% of expected concentration detected” value ([6]; PS tubes) was 84% and the “% of expected concentration detected” value ([6]; glass tubes) was 80%. The “% of concentration remaining” value ([6]; Nunc untreated PS microwell plates) was 70%, the “more potent MICs with surfactant present” value [7] was 4- to 8 fold and the protein binding [8] was 50 to 60% and 60%.

Source: article PMC6325200, “Effects of Microplate Type and Broth Additives on Microdilution MIC Susceptibility Assays” (Antimicrobial Agents and Chemotherapy, 2018)
